This note sets out measurements from US9872928B2, “Diagnostic agent for therapeutic effect on cancer” (HAMAMATSU PHOTONICS K.K., priority 2013, dated 2018).

One data set deals with mitochondria Complex-1. Description: Evaluation of binding affinity with respect to mitochondria Complex-1 (displacement of [3H]dihydrorotenone tracer from mitochondrial fraction). Also noted: species or system rat (brain) and bull (heart). The settings on record: FIG. 1. The method, then:
A dose-response curve of each of a TEST substance and a positive substance was created, and a concentration (IC50 value) at which the TEST substance and the positive substance suppress 50% of bonding between a tracer and mitochondrial Complex-1 (receptor) and an absolute inhibition constant (Ki) were calculated. As the TEST substance, [^18F]BMS-747158-02 (2-tert-butyl-4-chloro-5-[4-(2-fluoro-ethoxymethyl)-benzyloxy]-2H-pyri dazin-3-one, hereinafter also referred to as “BMS”), BCPP-EF, BCPP-BF, BCPP-PF, BCPP-EM, and BMS-P were used. The details will be described below.
An animal tissue was weighed (wet weight), a homogenization buffer solution (10 mmol/L Tris-HCl buffer solution (pH, 7.40) of 250 mmol/L sucrose, 1 mmol/L succinic acid, and 0.2 mmol/L EDTA) was added in an amount twice the amount of the animal tissue, and the mixture was homogenized under ice cooling. Thereafter, the homogenized suspension solution was centrifuged (1200×g, 4° C., 20 minutes). The supernatant was collected and centrifuged (26000×g, 4° C., 15 minutes). […] The protein concentration of the mitochondrial fraction was measured using BCA Protein Assay Reagent (manufactured by Pierce Companies). […]
Measurement was performed according to the following order. Two samples were prepared for each concentration, and each sample was measured three times. […]
On the technique in general: In a radioligand displacement assay an active substance lowers the binding of a labelled ligand.

Data set [1] concerns SCCVII cells tumor tissue. Kind of data set: Judgment of effect of cancer therapy using PET measurement in cancer-bearing mice after X-ray irradiation. In kind it is in vivo, mouse. The method, then: When the tumor volume reached about 100 mm^3, a cancer therapy using irradiation with an X-ray was performed to a tumor site of a mouse at a dose ratio of 1.2 Gy/minute using an apparatus which can perform irradiation with an X-ray having an energy of 250 keV (Hitachi Power Solutions MBR-1520R-3). As conditions of irradiation with X-ray, four conditions of non-irradiation (0 Gy, control), 6 Gy, 15 Gy, and 30 Gy were set. Also after the irradiation treatment, the tumor volume was regularly measured according to the above method.
Two days and seven days after irradiation with X-ray, a mouse with a tumor tissue (cancer-bearing mouse) was anesthetized by isoflurane gas. Thereafter, four mice were fixed at one time in a gantry of an animal PET camera (HAMAMATSU SHR-38000). For absorption correction, transmission measurement was performed using a ^68Ge-^68Ga calibration-ray source for 15 minutes. Thereafter, about 5 MBq/0.2 mL of [^18F]BCPP-EF was administered into a tail vein of a mouse, and dynamic emission measurement was performed for 60 minutes. FIG. 3 illustrates a PET image showing an effect of the radiation therapy in the tumor tissue of a mouse.
After the PET measurement was finished, each of the mice was moved to a small animal X-CT (SHIMADZ Clairvivo CT) with a fixed stand while being anesthetized, and CT measurement was performed for ten minutes. A form image (X-CT image) obtained by the CT measurement was collected, a PET accumulated image 40 to 60 minutes after administration of [^18F]BCPP-EF was superimposed on the X-CT image, and a PET image of a cancer tissue was identified.
An interest region was set on the PET image of the cancer tissue, and a value normalized with a body weight of an individual and an administration radiation dose was used as an accumulation amount of [^18F]BCPP-EF in the cancer tissue. The results are illustrated in FIG. 4.

The structures appear in SMILES notation.

As to `CC(C)(C)n1ncc(OCc2ccc(OCCCCF)nc2)c(Cl)c1=O` [BCPP-BF], in the data set on mitochondria Complex-1 (suggested from dose-response curve), the “affinity with respect to mitochondria Complex-1” value is “high affinity”. In addition, at mitochondria Complex-1 (tracer dihydrorotenone[2-isopropyl-3H(N)], 22° C., 30 minutes), the “IC50 (concentration suppressing 50% of bonding between tracer and mitochondrial Complex-1), comparison in words” value is given as “lowest IC50”.

On to `CC(C)(C)n1ncc(OCc2ccc(OCCOCC[18F])nc2)c(Cl)c1=O` [[^18F]BCPP-EF], for which the “accumulation in the tumor tissue (PET) as the irradiation dose was increased” value in data set [1] (X-ray 0, 6, 15, 30 Gy, FIGS. 3 and 4) is “increase in accumulation”. For the same compound, the “accumulation in the tumor tissue (PET)” value in data set [1] (before the radiation therapy, tail vein administration) is “not observed”; in data set [1] (two days after irradiation with radiation, PET image 40 to 60 minutes after administration) it was “increased”. Besides, the “increase in accumulation in proportion to the radiation dose, duration” value in data set [1] (seven days after irradiation with radiation, FIGS. 3 and 4) was “continued until seven days after irradiation”.
